Values after ≈ are worked out from the molar mass of the structure shown.
How the values were obtained:
[1] = system: panel of 10 different non-fastidious bacteria; assay: Screening against panel of non-fastidious bacteria
[2] = system: dihydroorotate dehydrogenase (DHODH); assay: DHODH assay; assay type: biochemical; conditions: at 10 μM
Protocol: 100 μl chalcone or 0.1 M Tris-HCl pH 8.0 is added to a well in a 96-wells microtiter plate. Then 50 μl enzyme dilution is added. The microtiter plate is placed in the Powerwavex340 and the enzymatic reactions starts when adding 100 μl assay mixture. The reaction are measured every 20 sec. for 10 min. The samples with chalcones are compared with the samples with 0.1 M Tris-HCl pH 8.0 and the percent inhibition is calculated.
Enzyme dilution: The solution of recombinant purified enzyme is dissolved in 0.1 M Tris-HCl pH 8 to give an initial velocity of 0.04-0.05 ΔA/min.
2,6-dichlorophenolindophenol (DCIP)-stock solution: 40 mg DCIP and 10 ml 99% Ethanol are mixed for 10 min at RT. Then 100 μl 1.0 M Tris-HCl pH 8 and miliQ H2O are added to a final volume of 100 ml. The A600 of the DCIP-stock solution are measured in a microtiter plate on the Powerwavex340 (Bio-Tek instruments,Inc.)
[…]: 25 mM dihydroorotate stock-solution is prepared by first dissolving in the same amount of mol NaOH and then miliQ H2O is added to the final volume.
Assay mix (10 ml solution): 600 μl of DHODH-stock solution and X ml (depending on the A600 value of stock-solution) DCIP to a final A600=2.5 are mixed. Then 0.1 M Tris-HCl pH 8.0 are added to a final volume of 10 ml.
Preparation of compound soluton: A 10 mM stock-solution of compound (e.g. a chalcone derivative) is made in dimethylsulfoxid (DMSO). The compound is then diluted in 0.1 M Tris-HCl pH 8 to the test concentrations. The final DMSO concentration in the sample is 10%

[3] = system: L. major promastigotes; assay: Leishmania promastigote assay
[4] = system: Bacteroides fragilis, Clostridium perfringens, Clostridium difficele; assay type: cell-based; conditions: single concentration of compound (100 μM)
[5] = Determination of solubility; assay type: physicochemical; conditions: aqueous buffer at pH 7.4
Protocol: Determination of Solubility
Solubility of the compounds was determined by preparing a saturated solution of compound in 0.3 M phosphate buffer (pH 7.4±0.3) in a brown glass tube. The suspensions were rotated slowly for 24 hours. Aliquots were centrifuged for 10 minutes at 14.000 rpm and supernatants were diluted in 40% (v/v) acetonitrile in water prior to HPLC analysis. Concentrations of analytes were quantified against a standard curve and used as term of solubility. The HPLC-UV method used for the assessment of solubility is the same as used in the in vitro metabolism assay.

[6] = Determination of metabolic stability (liver microsomes); assay type: in vitro ADME; conditions: rat liver microsomes, 20 μM, 15 min
Protocol: Determination of Metabolic Stability
Incubations were performed with Wistar rat liver microsomes (0.25 mg/ml) in 2% sodium bicarbonate solution. NADP (0.13 mg/ml), glucose-6-phosphate (0.63 mg/ml) and glucose-6-phosphate dehydrogenase (0.38 units/ml) were used as NADPH generation system and UDPGA (0.48 mg/ml) was added to include the phase II reaction, glucuronic acid conjugation, in the assay. After 5 minutes of pre-incubation the reaction was started by addition of the test article to give a final concentration of 20 μM. Samples were incubated for 15 min at 37° C. and the reactions were terminated by addition of equal volumes of acetonitrile. Blank incubations were performed at the same concentration but without addition of microsomes. Both blank and microsome-containing samples were made in replicats of three. Prior to analysis samples were centrifuged for 10 min. at 3500 rpm,HPLC system:
Initial conditions were 40% mobile phase A (acetonitrile) and 60% mobile phase B (10 mM ammonium acetate pH 9.5). During the first 20 minutes, the mobile phase was changed via a linear gradient to 90% A and 10% B. This was followed by a 5 minutes linear gradient to initial conditions, which were maintained for 5 min. The flow rate was 0.20 m)/min and injection volume 10 μl.

[7] = system: Plasmodium falciparum 3D7; assay: Plasmodium falciparum assay; assay type: cell-based; conditions: Plasmodium falciparum 3D7 (Table 2); read-out: IC50
[8] = system: Eschericia coli ATCC25922; assay: MIC determination in broth microdilution assay
[9] = system: Staphylococcus aureus ATCC29213; assay: MIC determination in broth microdilution assay; conditions: A: Staphylococcus aureus ATCC29213
[10] = system: Eschericia coli ESS; assay: MIC determination in broth microdilution assay
[11] = system: Staphylococcus aureus ATCC33591(resistant to methicillin); assay: MIC determination in broth microdilution assay; conditions: B: Staphylococcus aureus ATCC33591(resistant to methicillin)
[12] = system: Enterococcus faecalis ATCC29212; assay: MIC determination in broth microdilution assay; conditions: D: Enterococcus faecalis ATCC29212
[13] = system: Enterococcus faecium #17501 (vancomycin-resistant clinical isolate); assay: MIC determination in broth microdilution assay; conditions: E: Enterococcus faecium #17501 (vancomycin-resistant)

For COc1ccc(C(=O)/C=C/c2ccccc2)cc1 [4′MC, 4′-methoxy chalcone, reference compound], the antibacterial effect [1] was “no antibacterial effect at all” and the “Inhibition of DHODH” value [2] was 7%.
For COc1ccc(C(=O)/C=C/c2cc(-c3ccccc3OC)ccc2OCCN(C)C)c(F)c1 [Compound C015, (E)-3-[4-(2-Dimethylamino-ethoxy)-2′-methoxy-biphenyl-3-yl]-1-(2-fluoro-4-methoxy-phenyl)-propenone], the “potency against Gram-positive pathogens in comparison with Licochalcone A” value (shortened to “potency against Gram-positive pathogens”) [1] was “increased potency”, the IC50 ([3]; L. major) was 100 nM and the “activity against anaerobic bacteria” value [4] was “activity against all microorganisms within the test panel”.
For COc1ccc(C(=O)C=Cc2cc(-c3ccccc3Cl)ccc2OCCN(C)C)c(OC)c1OC [Compound C018, (E)-3-[2′-Chloro-4-(2-dimethylamino-ethoxy)-biphenyl-3-yl]-1-(2,3,4-trimethoxy-phenyl)-propenone], the Solubility [5] was 1500 µg/mL (≈ 3.02 mM).
For COc1ccc(C(=O)/C=C/c2cc(-c3ccccc3C)ccc2OCCN(C)C)cc1 [Compound C019, (E)-3-[4-(2-Dimethylamino-ethoxy)-2′-methyl-biphenyl-3-yl]-1-(4-methoxy-phenyl)-propenone], the “times more potent than LicA” value ([3]; dose-respons curve at Leishmania Major, FIG. 5) was 100 times and the “Inhibition of DHODH” value [2] was 18%.
With COc1ccc(C(=O)/C=C/c2cc(-c3ccccc3C)ccc2OCCN(C)C)c(F)c1 [Compound C020, (E)-3-[4-(2-Dimethylamino-ethoxy)-2′-methyl-biphenyl-3-yl]-1-(2-fluoro-4-methoxy-phenyl)-propenone] the IC50 ([3]; L. major) was 30 nM and the “Inhibition of DHODH” value [2] was 18%.
For COc1ccc(C(=O)/C=C/c2cc(-c3ccccc3C)ccc2OCCN(C)C)c(Cl)c1 [Compound C022, (E)-1-(2-Chloro-4-methoxy-phenyl)-3-[4-(2-dimethylamino-ethoxy)-2′-methyl-biphenyl-3-yl]-propenone], the “Inhibition of DHODH” value [2] was 21%.
With COc1ccc(C(=O)/C=C/c2cc(-c3cc(C)cc(C)c3)ccc2OCCN(C)C)c(F)c1 [Compound C024, (E)-3-[4-(2-Dimethylamino-ethoxy)-3′,5′-dimethyl-biphenyl-3-yl]-1-(2-fluoro-4-methoxy-phenyl)-propenone] the IC50 ([3]; L. major) was 40 nM and the “Metabolic turn-over in vitro” value [6] was 3%.
For COc1ccc(C(=O)/C=C/c2cc(-c3cc(C)cc(C)c3)ccc2OCCN(C)C)c(OC)c1OC [Compound C025, (E)-3-[4-(2-Dimethylamino-ethoxy)-3′,5′-dimethyl-biphenyl-3-yl]-1-(2,3,4-trimethoxy-phenyl)-propenone], the “activity against anaerobic bacteria” value [4] was “activity against all microorganisms within the test panel”.
For CN(C)CCOc1ccc(C(C)(C)C)cc1/C=C/C(=O)c1ccccc1NS(=O)(=O)c1ccccc1 [Compound C027, N-(2-{3-[5-tert-Butyl-2-(2-dimethylamino-ethoxy)-phenyl]-(E)-acryloyl}-phenyl)-benzenesulfonamide], the “Inhibition of DHODH” value [2] was 22%.
COc1ccccc1-c1ccc(OCCN(C)C)c(/C=C/C(=O)c2ccccc2CN(C)C)c1 [Compound C036, (E)-3-[4-,(2-Dimethylamino-ethoxy)-2′-methoxy-biphenyl-3-yl]-1-(2-dimethylaminomethyl-phenyl)-propenone] gave an IC50 [7] of 200 nM and a Solubility [5] of 1800 µg/mL (≈ 3.92 mM).
In the case of CN(C)CCOc1ccc(-c2ccccc2)cc1/C=C/C(=O)c1cccc(CN(C)C)c1 [Compound C037, (E)-3-[4-(2-Dimethylamino-ethoxy)-biphenyl-3-yl]-1-(3-dimethylaminomethyl-phenyl)-propenone], the “potency against Gram-positive pathogens” value [1] is reported as “increased potency”, the IC50 ([3]; L. major) is reported as 500 nM and the Solubility [5] is reported as 1500 µg/mL (≈ 3.5 mM).
In the case of CN(C)CCCOc1ccc(C(C)(C)C)cc1/C=C/C(=O)c1ccccc1NS(=O)(=O)c1ccccc1 [Compound C042, N-(2-{3-[5-tert-Butyl-2-(3-dimethylamino-propoxy)-phenyl]-(E)-acryloyl}-phenyl)-benzenesulfonamide], the “potency against Gram-positive pathogens” value [1] is reported as “increased potency”, the IC50 ([3]; Leishmania major) is reported as 200 nM and the “activity against anaerobic bacteria” value [4] is reported as “activity against all microorganisms within the test panel”.
For Cc1ccccc1-c1ccc(OCCN(C)C)c(CCC(=O)c2ccccc2CN(C)C)c1 [Compound C073, 3-[4-(2-Dimethylamino-ethoxy)-2′-methyl-biphenyl-3-yl]-1-(2-dimethylaminomethyl-phenyl)-propan-1-one], the solubility at 24 h ([5]; 0.3 M phosphate buffer, thermodynamic from solid) was greater than 10000 µg/mL.
In the case of Cc1cc(C)cc(-c2ccc(OCCN(C)C)c(/C=C/C(=O)c3cccc(NCCN(C)C)c3)c2)c1 [Compound C075, (E)-3-[4-(2-Dimethylamino-ethoxy)-3′,5′-dimethyl-biphenyl-3-yl]-1-[3-(2-dimethylamino-ethylamino)-phenyl]-propenone], the “activity against E coli ATCC25922” value [8] is reported as “high activity”, the MIC ([8]; G: Eschericia coli ATCC25922) is reported as 9.4 µM (≈ 4.57 µg/mL) and the MIC [9] is reported as 4.7 µM (≈ 2.28 µg/mL). For the same compound, the “activity against ESS strain of E.coli” value [10] was “high activity”, the MIC ([10]; H: Eschericia coli ESS) was 4.7 µM (≈ 2.28 µg/mL) and the MIC [11] was 4.7 µM (≈ 2.28 µg/mL). For the same compound, the “Metabolic turn-over in vitro” value [6] was 8%, the MIC [12] was 9.4 µM (≈ 4.57 µg/mL) and the IC50 [7] was 500 nM. It also gave an MIC [13] of 9.4 µM (≈ 4.57 µg/mL) and a Solubility [5] of 4100 µg/mL (≈ 8.44 mM).
For Cc1cc(C)cc(-c2ccc(OCCN(C)C)c(C=CC(=O)c3cccc(F)c3)c2)c1 [Compound C079, (E)-3-[4-(2-Dimethylamino-ethoxy)-3′,5′-dimethyl-biphenyl-3-y]-1-(3-fluoro-phenyl)-propenone], the “activity against anaerobic bacteria” value [4] was “activity against all microorganisms within the test panel”.
In the case of Cc1ccccc1-c1ccc(OCCN(C)C)c(/C=C/C(=O)c2ccc(O)c(CN(C)C)c2)c1 [Compound C108, (E)-3-[4-(2-Dimethylamino-ethoxy)-2′-methyl-biphenyl-3-yl]-1-(3-dimethylaminomethyl-4-hydroxy-phenyl)-propenone], the Solubility [5] is reported as 18100 µg/mL (≈ 39.5 mM).
In the case of Cc1ccccc1-c1ccc(OCCN2CCCC2)c(/C=C/C(=O)c2ccccc2CN(C)C)c1 [Compound C136, (E)-1-(2-Dimethylaminomethyl-phenyl)-3-[2′-methyl-4-(2-pyrrolidin-1-yl-ethoxy)-biphenyl-3-yl]-propenone], the Solubility [5] is reported as 5500 µg/mL (≈ 11.7 mM).

Reference: patent US7423181B2, “Aminoalkoxy-functional chalcones” (Lica Pharmaceuticals A/S, priority 2002, dated 2008)
